Assay results as given in ChEMBL document CHEMBL1151820, “Antagonists of the P2X(7) receptor. From lead identification to drug development” (J Med Chem, 2009).

Assays:
[1] = target: T1, P2X purinoceptor 7 (Homo sapiens) (UniProt Q99572); experiment: Inhibition of human P2X7 receptor in human PBMC assessed as inhibition of BzATP-induced IL1-beta release at 0.3 uM
T1 sequence (whole entry): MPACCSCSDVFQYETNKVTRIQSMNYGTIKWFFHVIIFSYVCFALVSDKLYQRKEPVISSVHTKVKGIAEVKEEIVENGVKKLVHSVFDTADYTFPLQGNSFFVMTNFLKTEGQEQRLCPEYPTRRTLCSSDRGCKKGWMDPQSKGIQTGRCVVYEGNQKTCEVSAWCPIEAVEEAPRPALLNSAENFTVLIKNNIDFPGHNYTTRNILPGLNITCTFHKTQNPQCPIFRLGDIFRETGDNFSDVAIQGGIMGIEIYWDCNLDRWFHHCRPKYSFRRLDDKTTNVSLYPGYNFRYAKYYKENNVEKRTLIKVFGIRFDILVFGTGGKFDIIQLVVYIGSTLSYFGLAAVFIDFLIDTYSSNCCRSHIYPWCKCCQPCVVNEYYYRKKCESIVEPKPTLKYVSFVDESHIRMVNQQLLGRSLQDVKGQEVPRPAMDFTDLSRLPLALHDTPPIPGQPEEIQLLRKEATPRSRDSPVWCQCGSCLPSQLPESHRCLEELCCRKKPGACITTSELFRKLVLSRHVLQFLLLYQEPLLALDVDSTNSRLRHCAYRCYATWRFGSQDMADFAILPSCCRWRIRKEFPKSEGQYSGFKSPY

[2] = Plasma clearance in iv dosed rat; assay type: ADME, organism-based
[3] = Volume of distribution at steady state in iv dosed rat; assay type: ADME, organism-based; details: in vivo, read-out: Vdss
[4] = Half life in iv dosed rat; assay type: ADME, organism-based; details: in vivo
[5] = target: T2, P2X purinoceptor 7 (Homo sapiens, UniProt Q99572); experiment: Antagonist activity at human P2X7 receptor expressed in human U373 cells assessed as inhibition of BzATP-induced Yo-Pro uptake; assay type: functional, cell-based, U-373MG ATCC
T2 sequence (Q99572 whole entry): T1 sequence (whole entry)

[6] = target: T2, P2X purinoceptor 7; experiment: Inhibition of human P2X7 receptor assessed as inhibition of BzATP-induced IL1-beta release
[7] = target: T2, P2X purinoceptor 7; experiment: Antagonist activity at human P2X7 receptor expressed in HEK293 cells assessed as inhibition of BzATP-induced calcium influx; assay type: functional, cell-based
[8] = target: T2, P2X purinoceptor 7; experiment: Antagonist activity at P2X7 receptor in human lymphocytes assessed as inhibition of ATP-induced Ba2+ influx; assay type: functional, cell-based
[9] = target: T2, P2X purinoceptor 7; experiment: Antagonist activity at P2X7 receptor in human THP1 cells assessed as inhibition of BzATP-induced ethidium uptake; assay type: functional, cell-based, THP-1
[10] = target: T3, P2X purinoceptor 7 (Rattus norvegicus, UniProt Q64663); experiment: Activity at rat P2X7 receptor expressed in HEK cells assessed as effect on BzATP-induced ethidium uptake; assay type: cell-based, HEK293
T3 sequence (Q64663 whole entry): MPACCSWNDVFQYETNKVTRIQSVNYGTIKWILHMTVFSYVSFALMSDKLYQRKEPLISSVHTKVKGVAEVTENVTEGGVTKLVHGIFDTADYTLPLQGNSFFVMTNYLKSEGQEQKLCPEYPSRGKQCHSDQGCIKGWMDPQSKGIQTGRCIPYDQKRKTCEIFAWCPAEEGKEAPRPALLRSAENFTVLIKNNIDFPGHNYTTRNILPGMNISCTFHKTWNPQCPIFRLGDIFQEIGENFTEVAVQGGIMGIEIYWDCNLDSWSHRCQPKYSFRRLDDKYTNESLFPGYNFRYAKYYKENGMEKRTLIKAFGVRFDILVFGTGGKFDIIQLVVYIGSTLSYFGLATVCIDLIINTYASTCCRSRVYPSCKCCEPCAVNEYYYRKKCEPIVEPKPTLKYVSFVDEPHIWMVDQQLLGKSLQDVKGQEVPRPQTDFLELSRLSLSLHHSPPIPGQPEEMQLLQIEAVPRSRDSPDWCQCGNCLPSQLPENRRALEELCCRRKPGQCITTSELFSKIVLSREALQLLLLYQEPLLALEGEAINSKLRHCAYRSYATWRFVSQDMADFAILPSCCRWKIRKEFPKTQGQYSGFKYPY

[11] = tested on: Rattus norvegicus; experiment: Antinociceptive activity in ip dosed rat Chung model of neuropathic pain; assay type: functional
[12] = target: T2, P2X purinoceptor 7; experiment: Antagonist activity at human P2X7 receptor expressed in HEK293 cells assessed as inhibition of ATP-induced ethidium uptake
[13] = Plasma clearance in Sprague-Dawley rat; assay type: ADME, organism-based
[14] = Terminal phase volume of distribution in Sprague-Dawley rat; assay type: ADME, organism-based; details: in vivo, read-out: Vbeta
[15] = Half life in Sprague-Dawley rat; assay type: ADME, organism-based; details: in vivo
[16] = Bioavailability in Sprague-Dawley rat; assay type: ADME, organism-based; details: in vivo
[17] = target: T1, P2X purinoceptor 7 (Homo sapiens); experiment: Inhibition of human P2X7 receptor in human PBMC assessed as inhibition of BzATP-induced IL1-beta release at 0.03 uM
[18] = Oral bioavailability in rat; assay type: ADME, organism-based; details: in vivo
[19] = Metabolic stability in rat hepatocytes assessed as intrinsic clearance assessed per million cells; assay type: ADME, cell-based, Liver, Hepatocyte
[20] = Plasma clearance in rat; assay type: ADME, organism-based
[21] = Volume of distribution at steady state in rat; assay type: ADME, organism-based; details: in vivo, read-out: Vdss
[22] = Half life in rat; assay type: ADME, organism-based; details: in vivo
[23] = Metabolic stability in human liver microsomes assessed as half life; assay type: ADME, Microsome
[24] = Bioavailability in rat; assay type: ADME, organism-based; details: in vivo
[25] = tested on: Mus musculus; experiment: In vivo receptor activity at P2X7 receptor in mouse model assessed as ATP-induced IL1-beta release; assay type: functional
[26] = target: T1, P2X purinoceptor 7 (Homo sapiens); details: HEK293, at 3 µM

Question: With `O=C(CC12CC3CC(CC(C3)C1)C2)Nc1ncnc2c1CCN(S(=O)(=O)c1ccc(F)cc1F)C2` as the compound, how does the inhibition [1] read?
Answer: Its inhibition is > 75%.

Question: What does the source list for `Cc1ccccc1N=C(NC#N)N1CCN(C(=O)Nc2ccc(Cl)cc2)C(c2ccccc2)C1` (configuration not stated)?
Answer: clearance [2]: 68 mL/min/kg; Vd [3]: 5.3 L/kg; half-life [4]: 0.9 h

Question: For `Fc1cccc(CNC2=N[C@@H](c3cccc(F)c3)[C@@H](c3cccc(F)c3)N2)c1`, which IC50 [5] is on record?
Answer: Its IC50 is 63.1 nM.

Question: What about the IC50 [6] of the same compound?
Answer: The IC50 was 1260 nM.

Question: With `COc1cccc(NC(=O)c2cccc(Cc3c(C)nn(CCO)c3-c3ccccc3)c2)c1` as the compound, how does the IC50 [7] read?
Answer: Its IC50 is ≤ 200 nM.

Question: For `CN([C@@H](Cc1ccc(OS(=O)(=O)c2cccc3cnccc23)cc1)C(=O)N1CCN(c2ccc(Cl)cc2)CC1)S(=O)(=O)c1cccc2cnccc12`, which IC50 [7] is on record?
Answer: The IC50 was 100 nM.

Question: Which IC50 [8] does the source give for `CN([C@@H](Cc1ccc(OS(=O)(=O)c2cccc3cnccc23)cc1)CN1CCN(c2ccccc2)CC1)S(=O)(=O)c1cccc2cnccc12` here?
Answer: The IC50 was 15.8 nM.

Question: With `Cc1ccccc1Cn1cnnc1-c1cccc(Cl)c1Cl` as the compound, how does the IC50 [9] read?
Answer: The IC50 was 79.4 nM.

Question: And the IC50 [10]?
Answer: Its IC50 is 200 nM.

Question: What about the Efficacy [11] of the same compound?
Answer: Its Efficacy is 68%.

Question: Which pIC50 ([7]; hek293) does the source give for `Cc1n[nH]c(C)c1CC(=O)NCc1ccc(F)c(C(F)(F)F)c1` here?
Answer: The pIC50 was > 4.7.

Question: What about the IC50 [12] of the same compound?
Answer: The IC50 was < 3160 nM.

Question: Which clearance [13] does the source give for `COc1ccc(CC(=O)NC(N/C(=N/C#N)Nc2cccc3ncccc23)C(C)(C)C)cc1OC` (configuration not stated) here?
Answer: Its clearance is 62 mL/min/kg.

Question: And the Vd [14]?
Answer: Its Vd is 21 L/kg.

Question: What about the half-life [15] of the same compound?
Answer: The half-life was 4 h.

Question: And the bioavailability [16]?
Answer: The bioavailability was 20%.

Question: Which inhibition [17] does the source give for `O=C(NCC12CC3CC(CC(C3)C1)C2)c1ncnc2c1CCN(Cc1ccccc1)C2` here?
Answer: Its inhibition is 50%.

Question: With `CN([C@@H](Cc1ccc(OS(=O)(=O)c2cccc3cnccc23)cc1)C(=O)N1CCN(CCc2ccccc2)CC1)S(=O)(=O)c1cccc2cnccc12` as the compound, how does the IC50 [7] read?
Answer: Its IC50 is 631 nM.

Question: Which results are given for `Cc1ccc2c(N/C(=N\C#N)N3CCN(C(=O)c4ccc(Cl)cc4)CC3C(C)C)cccc2n1` (configuration not stated)?
Answer: clearance [2]: 23 mL/min/kg; Vd [3]: 11.8 L/kg; half-life [4]: 4.4 h; bioavailability [18]: 5%

Question: For `O=C(CNS(=O)(=O)c1cccc2cnccc12)N1CCN(c2ccc(F)cc2)CC1`, which IC50 [7] is on record?
Answer: The IC50 was 63.1 nM.

Question: Which results are given for `O=C(NCC12CC3CC(CC(C3)C1)C2)c1cc(Cl)ccc1Cl`?
Answer: hepatocyte CLint [19]: > 100 µL/min/1e6 cells; clearance [20]: 100 mL/min/kg; Vd [21]: 3 L/kg; half-life [22]: 0.5 h

Question: For `Cc1ccc2c(=O)n([C@H](C)CO)ccc2c1NC(=O)Cc1ccc(C(F)(F)F)c(F)c1`, which half-life [23] is on record?
Answer: Its half-life is 1.5 h.

Question: And the bioavailability [18]?
Answer: Its bioavailability is 25%.

Question: For `CN([C@@H](Cc1ccc(OS(=O)(=O)c2cccc3cnccc23)cc1)C(=O)N1CCN(Cc2ccccc2)CC1)S(=O)(=O)c1cccc2cnccc12`, which IC50 [7] is on record?
Answer: Its IC50 is 20 nM.

Question: With `O=C(CNS(=O)(=O)c1cccc2cnccc12)N1CCN(c2ccccc2F)CC1` as the compound, how does the IC50 [7] read?
Answer: The IC50 was 12.6 nM.

Question: Which IC50 [7] does the source give for `O=C([C@H](Cc1ccc(OS(=O)(=O)c2cccc3cnccc23)cc1)NS(=O)(=O)c1cccc2cnccc12)N1CCN(c2ccc(F)cc2)CC1` here?
Answer: The IC50 was 6.31 nM.

Question: For `Clc1cccc(-n2cnnc2NCc2cccnc2N2CCCC2)c1Cl`, which IC50 [9] is on record?
Answer: The IC50 was 15.8 nM.

Question: What about the IC50 [10] of the same compound?
Answer: The IC50 was 12.6 nM.

Question: Which IC50 [7] does the source give for `O=C(CNS(=O)(=O)c1cccc2cnccc12)N1CCN(c2ccc([N+](=O)[O-])cc2)CC1` here?
Answer: Its IC50 is 20 nM.

Question: For `Cc1ccccc1N1CCN(C(=O)[C@H](Cc2ccc(OS(=O)(=O)c3cccc4cnccc34)cc2)N(C)S(=O)(=O)c2cccc3cnccc23)CC1`, which IC50 [7] is on record?
Answer: The IC50 was 15.8 nM.

Question: For `O=C(NCCc1ccccc1Cl)c1cc(-n2ncc(=O)[nH]c2=O)ccc1Cl`, which IC50 [9] is on record?
Answer: Its IC50 is 316 nM.

Question: And the clearance [20]?
Answer: The clearance was 9 mL/min/kg.

Question: And the Vd [21]?
Answer: Its Vd is 0.3 L/kg.

Question: And the half-life [22]?
Answer: Its half-life is 3 h.

Question: What about the bioavailability [24] of the same compound?
Answer: The bioavailability was 44%.

Question: What about the ED50 [25] of the same compound?
Answer: Its ED50 is 20 mg/kg.

Question: For `CN([C@@H](Cc1ccc(OS(=O)(=O)c2cccc3cnccc23)cc1)C(=O)N1CCN(c2ccccc2)CC1)S(=O)(=O)c1cccc2cnccc12`, which IC50 [7] is on record?
Answer: Its IC50 is 50.1 nM.

Question: And the IC50 [8]?
Answer: Its IC50 is 12.6 nM.

Question: And the inhibition [26]?
Answer: Its inhibition is 85%.

Question: What does the source list for `C[C@H](CO)n1ccc2c(NC(=O)Cc3ccc(Cl)c(C(F)(F)F)c3)cccc2c1=O`?
Answer: IC50 [9]: 1.26 nM; half-life [23]: 1 h; bioavailability [18]: 25%

Question: Which IC50 [9] does the source give for `O=C(NNc1cccc2ncccc12)C12CC3CC(CC(C3)C1)C2` here?
Answer: The IC50 was 10 nM.

Question: What about the IC50 [10] of the same compound?
Answer: Its IC50 is 39.8 nM.
